Reference: patent publication US20250345383A1, “INTRANASAL ADMINISTRATION OF POLYSULFIDE” (The General Hospital Corporation, priority 2022, published 2025)

Experiments:
[1] = tested on: primary cortical neurons; experiment: Cell viability after oxygen and glucose deprivation/reoxygenation (OGD/R), primary cortical neurons; type: cell-based, mouse; settings: GSSSG at 30 μM, GSH at 60 μM, GSSG at 30 μM; vs vehicle-only treated cells
Protocol: Primary cortical neurons were isolated from the cerebral cortices of C57BL/6J mice of both sexes at embryonic day 15, as previously described 39. Primary cortical neurons were maintained at 37° C. in a humidified tissue culture chamber with 5% CO2 and cells were used on day 11 after harvest. […] After reoxygenation, cell viability and cell injury were assessed using crystal violet and lactate dehydrogenase (LDH) assays, as previously described^39.

[2] = tested on: mice subjected to SCI; experiment: Mouse model of spinal cord ischemia (SCI): delayed paraplegia, hindlimb motor function by Basso mouse scale (BMS); type: in vivo
From the text: Adult C57BL/6J mice (12-18 weeks old) of both sexes were purchased from Jackson Laboratory (Bar Harbor, ME, USA). Both male and female mice were used in experiments to investigate the neuroprotective effect of GSSSG on motor function after SCI. […] All mice were housed in a temperature and humidity-controlled room in the animal center with a 12-hour light/dark cycle, and were provided with food and water ab libitum. To permit access by mice that were recovering from surgery, additional food pellets were inserted into hydrated gel placed on the bedding. A randomized paired design was used to minimize the variability between each treatment group. Mice were paired based on weight, age, delivery dates, and when possible, holding cages. After the pairing, mice were randomly assigned to different treatments.
The surgical procedures to produce delayed paraplegia in mice were performed as previously described^6 (FIG. 2A). Mice were anesthetized with 5% isoflurane in 100% O2 and tracheally intubated with a 20-gauge catheter (Angiocath; Becton Dickinson, Franklin Lakes, NJ, USA). […] The paravertebral muscle temperature was measured using a T-type implantable thermocouple probe (IT-18) and a T-type pod (ADInstruments, Colorado Springs, CO, USA). […] A median sternotomy extended from the apex of the manubrium to the second rib. The aortic arch was gently isolated between the left common carotid artery (LCCA) and the left subclavian artery (LSA), avoiding the vagus nerve and the left recurrent laryngeal nerve. […] After ischemia, the clips were removed in reverse order. Incisions were closed in layers and mechanical ventilation was discontinued. After stable spontaneous respiration was confirmed, mice were extubated.
The previously described surgical procedures^6 were modified as follows. The respiratory rate during the procedure was increased to 230 breaths/minute, because hyperventilation promotes the occurrence of delayed paraplegia caused by spinal cord ischemia^33. A laser Doppler perfusion monitor (moorVMS-LDF1; Moor Instruments, Millwey, UK) was used to monitor the femoral artery blood flow^28,29. […] To improve the accuracy of surgical procedures, a microscope (Leica MZ95; Leica Microsystems, Buffalo Grove, IL, USA) was used to isolate the aortic arch and place the clips.
Study drugs were administered intranasally using a single-channel pipettor. Mice were anesthetized with 3% isoflurane using a non-rebreathing circuit with a mouse nose cone (VetEquip, Inc., Livermore, CA, USA). While the drugs were administered, the nose cone was removed and mice were allowed to breathe air. Approximately 6 μL of each drug was administered into the mouse's nostrils and the mouse inhaled the droplets during inspiration. […]

[3] = LC-MS/MS of ^34S-labeled GSSSG and sulfane sulfur species in CNS and plasma after intranasal GS^34SSG; type: in vivo, mouse
Protocol: We used LC-MS/MS analysis to measure the amount of ^34S-labeled GSSSG ([^32S2, ^34S]GSSSG) in the CNS and plasma after intranasal administration of GS^34SSG, an isotope of endogenous GSSSG^9,35,36. The ratios of ^34S-labeled sulfane sulfur species ([^32S, ^34S]GSSH, [^32S, ^34S]cysteine hydropersulfide (CysSSH), and [^32S2, ^34S]cysteine trisulfide (CysSSSCys)) to endogenous sulfane sulfur species ([^32S2]GSSH, [^32S2]CysSSH, and […]) were also quantitatively evaluated. At 30 minutes after intranasal administration of 50 mg/kg of GS^34SSG, blood was obtained and four different central nervous tissues were harvested: olfactory bulb and forebrain; brainstem; cervical and thoracic spinal cord, and lumbar spinal cord. A total of 30 mg of each tissue was homogenized in 300 μl of ice-cold methanol solution containing 5 mM β-(4-hydroxyphenyl)ethyl iodoacetamide (HPE-IAM; Santa Cruz Biotechnology, Dallas, TX, USA). Twenty-five μl of plasma was mixed with 75 μl of ice-cold methanol solution containing 5 mM HPE-IAM. Samples were incubated for 20 minutes at 37° C. in the dark. After centrifugation (14,000×g for tissues, 1,870×g for plasma, 10 minutes, 4° C.), the supernatant was separated and diluted with 0.1% formic acid for LC-MS/MS analysis, and the pellet was sonicated to measure the protein concentration by BCA assay. The amount of [^32S2, ^34S]GSSSG was quantified in selective reaction monitoring (SRM) with precursor ion (647.14 m/z), product ion (389.1 m/z), and higher energy collisional dissociation (21 v). The ratios of [^32S, ^34S]GSSH to [^32S2]GSSH, [^32S, ^34S]CysSSH to [^32S2]CysSSH, and [^32S2, ^34S]CysSSSCys to [^32S3]CysSSSCys were calculated from their peak area measured by Dionex UltiMate 3000 RS UPLC-Orbitrap Exploris 480 mass spectrometer (Thermo Fisher Scientific, Waltham, MA, USA). In brief, samples were subjected to the UPLC system with a Hypersil Gold C-18 (100×2.1 mm, 3.0 μm, Thermo Fisher Scientific, Waltham, MA, USA) column and were then eluted by a linear methanol gradient of the mobile phase (0-90%, 15 minutes) in the presence of 0.1% formic acid at a flow rate of 0.2 ml/minute at 40° C. The raw data were analyzed by Compound Discoverer 3.3 software (Thermo Fisher Scientific, Waltham, MA, USA). The molecular weights of these sulfane sulfur species combined with HPE-IAM were determined based on previous reports^9,11,37.

[4] = tested on: murine primary cortical neurons; experiment: Cell viability of murine primary cortical neurons incubated with MPP+ (crystal violet assay); type: cell-based, mouse; settings: MPP+ 50 μM, 24 hours
Protocol: (§1) Cell viability assays was performed to examine cell viabilities of SH-SY5Y cells or murine primary cortical neurons 24 h after the addition of MPP^+ (5 mM for SH-SY5Y, 50 μM for primary cortical neurons) with vehicle (PBS), Na2S (Sigma-Aldrich), Na2S3 (Dojindo Molecular Technologies, Inc), GSSSG (Glutathione trisulfide, Kyowa Hakko Bio Co., Ltd., Tokyo, Japan), LA (α-Lipoic acid, Sigma-Aldrich) or LASSS (α-Lipoic acid trisulfide, Kyowa Hakko Bio Co., Ltd., Tokyo, Japan). Cell viability was measured using the crystal violet assay.

[5] = tested on: primary cortical neurons; experiment: Relative sulfane sulfur levels in primary cortical neurons (SSip-1 DA); type: cell-based, mouse; settings: incubation at 10 μM for 20 minutes; relative to untreated neurons
Protocol: Primary cortical neurons were isolated from the cerebral cortices of C57BL/6J mice of both sexes at embryonic day 15, as previously described 39. Primary cortical neurons were maintained at 37° C. in a humidified tissue culture chamber with 5% CO2 and cells were used on day 11 after harvest.
(§2) Primary cortical neurons or SH-SY5Y cells, a human neuroblastoma cell line (American Type Culture Collection, Manassas, VA, USA), were incubated with SSip-1 DA […] at 37° C. for 20 minutes in the dark. Cells were washed with pre-warmed HBSS containing calcium and magnesium (Thermo Fisher Scientific, Waltham, MA, USA) and then cells were incubated with GSSSG, sodium trisulfide (Na2S3; Dojindo Molecular Technologies, Inc., Rockville, MD, USA), PTN-SSS, or vehicle alone for 20 minutes at 37° C. in the dark. Fluorescence intensities were measured using a microplate reader.

[6] = tested on: SH-SY5Y cells; experiment: Cell viability of SH-SY5Y cells incubated with MPP+ (crystal violet assay); type: cell-based, human; settings: MPP+ 5 mM, 24 h
Protocol: as §1

[7] = Stability of PTN-SSS in solution; type: physicochemical; settings: pH 4.0-9.0 at room temperature
[8] = tested on: SH-SY5Y cells; experiment: Relative sulfane sulfur levels in SH-SY5Y cells (SSip-1 DA); type: cell-based, human; settings: PTN-SSS 10-50 μM; vs vehicle-only treated cells
Protocol: as §2

[9] = tested on: sulfane sulfur in olfactory bulb and forebrain, whole spinal cord; experiment: Relative sulfane sulfur levels in olfactory bulb and forebrain and whole spinal cord after intranasal PTN-SSS (SSip-1); type: in vivo, mouse; settings: 30 minutes after intranasal 50 mg/kg PTN-SSS; vs vehicle alone
Protocol: At 30 minutes after intranasal administration of 50 mg/kg of PTN-SSS, the olfactory bulb and forebrain and the whole spinal cord were harvested. Tissues were homogenized in HBSS containing […] of SSip-1. The fluorescence intensities of supernatants were measured.

[10] = tested on: SH-SY5Y cells; experiment: Cell viability after OGD/R, SH-SY5Y cells; type: cell-based, human
Protocol: After reoxygenation, cell viability and cell injury were assessed using crystal violet and lactate dehydrogenase (LDH) assays, as previously described^39.

[11] = Water solubility of PTN-SSS; type: physicochemical
[12] = 30 minutes after intranasal 50 mg/kg GS^34SSG, mean ± SD

## N[C@@H](CCC(=O)N[C@@H](CS)C(=O)NCC(=O)O)C(=O)O [GSH, glutathione, reference compound]
[1]
  cell viability after OGD/R, crystal violet assay (GSSSG, GSH, GSSG comparison): did not improve cell viability
[2]; male mice, n=11 per group, intranasal at 0, 8, 23, 32 hours after surgery, GSSSG 50 mg/kg, GSH 45.2 mg/kg
  mice in which development of delayed paraplegia was prevented: 27%

## N[C@@H](CCC(=O)N[C@@H](CS[34S]SC[C@H](NC(=O)CC[C@H](N)C(=O)O)C(=O)NCC(=O)O)C(=O)NCC(=O)O)C(=O)O [GS^34SSG]
[3]; [12]
  [^32S2, ^34S]GSSSG concentration in plasma: 25 ± 10 nM
  [^32S2, ^34S]GSSSG in brainstem: 226±101 pmol/mg protein
  [^32S2, ^34S]GSSSG in cervical and thoracic spinal cord: 414±98 pmol/mg protein
  [^32S2, ^34S]GSSSG in lumbar spinal cord: 317±111 pmol/mg protein
  [^32S2, ^34S]GSSSG in olfactory bulb and forebrain: 128±67 pmol/mg protein
  ratio of [^32S2, ^34S]CysSSSCys to [^32S3]CysSSSCys in brain and spinal cord: 31.8±9.8
  ratio of [^32S, ^34S]GSSH to [^32S2]GSSH in brain and spinal cord: 6.5±2.8
[3]; 30 minutes after intranasal GS^34SSG, all CNS tissues
  concentration of ^34S-labeled GSSSG in the central nervous system: 268±140 pmol/mg protein
[3]; after intranasal GS^34SSG, worked out from previously reported endogenous CysSSH level
  level of ^34S-labeled CysSSH in lumbar spinal cord: ~18 pmol/mg protein
[3]; after intranasal GS^34SSG, worked out from previously reported endogenous GSSH level
  level of ^34S-labeled GSSH in lumbar spinal cord: approximately 1,600 pmol/mg protein

## O=C(O)CCCCC1CCSSS1 (centres unmarked) [LA-SSS, 1,2,3-trithiane-4-pentanoic acid]
[4]
  protection of murine primary cortical neurons from the effects of MPP+ treatment: protected

## [Na+].[Na+].[S-]S[S-] [Na2S3, sodium trisulfide, reference compound]
[5]
  levels of intracellular sulfane sulfur in primary cortical neurons: increased levels of intracellular sulfane sulfur
[6]; 10 μM each
  viability of MPP+-treated SH-SY5Y cells: increased the viability

## [Na+].[Na+].[S-2] [Na2S]
[6]; Na2S doses between 1 and 100 μM
  viability of SH-SY5Y cells treated with MPP+: did not improve the viability

## CC(C)(CO)[C@@H](O)C(=O)NCCC(=O)NCCSSSCCNC(=O)CCNC(=O)[C@H](O)C(C)(C)CO [PTN-SSS, pantethine trisulfide]
[7]
  stable in solution: at least 4 days
[8]
  sulfane sulfur levels in SH-SY5Y cells: increased significantly
[9]
  sulfane sulfur levels in the olfactory bulb and forebrain and the whole spinal cord: increased sulfane sulfur levels
[2]; PTN-SSS study, n=9 per group, intranasal PTN-SSS 50 mg/kg or PTN 47.3 mg/kg at 0, 8, 23, 32 hours after surgery
  male mice rescued from delayed paraplegia: 66%
[10]; PTN-SSS at 10 μM, 25 μM, or 50 μM, vs vehicle-only treated cells
  SH-SY5Y viability after OGD/R, crystal violet assay: significantly improved
[10]; PTN-SSS at 100 μM
  SH-SY5Y viability after OGD/R, crystal violet assay: did not improve cell viability
[11]
  water solubility: > 50 mg/mL
